Each structure is given as a SMILES string. Where two headings read alike, the source gives them in different places.

Here are results for one compound from patent publication EP4389117A1, “PROGESTERONE FORMULATION” (Besins Healthcare Distribution FZ-LLC, priority 2022, dated 2024).

For data set [1] the following is noted: single 200 mg oral dose, cited from earlier work.
The nature of data set [2]: Particle size distribution (PSD) measurement by laser light diffractometry, Malvern Mastersizer 2000. It is filed as physicochemical. Particulars: starting powder before wet-medium-milling. On the procedure:
In this document, any particle size characteristic of the wet-media-milled progesterone particles is determined using laser light diffractometry and is based on a volume weighted particle size distribution, unless specifically indicated otherwise. […] As will be understood by those skilled in the art, the term "Dv50" as used herein refers to the point in the size distribution, up to and including which, 50% of the total volume of material in the sample is 'contained'. […] Particle size distribution ('PSD') characteristics are determined using a Malvern® Mastersizer 2000 apparatus equipped with a Hydro 2000 SM wet sample dispersion unit, operated with the settings summarized in table 1. Table 1 - PSD measurement settings [table]

For `CC(=O)[C@H]1CC[C@H]2[C@@H]3CCC4=CC(=O)CC[C@]4(C)[C@H]3CC[C@]12C` [progesterone, pregn-4-ene-3,20-dione], the “peak levels of progesterone compared to plain milled progesterone” value in data set [1] (as a consequence of micronization) is reported as 1.4 fold. For the same compound, the “peak levels of progesterone compared to plain milled progesterone” value in data set [1] (as a consequence of the suspension in oil) was 1.2 fold. Further, in data set [1] (combination of micronization and the suspension in oil), the “peak levels of progesterone compared to plain milled progesterone” value is given as 3.2 fold. In data set [2], the Dv10 was 4.7, the Dv50 was found to be 38.4 and the Dv90 is on record as 74.6.
